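Tested at 5 concentrations; 48 h exposure; 96-well plates; endpoints linearly interpolated, else capped at highest concentration. At the GI50, growth is halved.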 Active and inactive are the calls of the source. No stated cut-off is given here; in the data, active = GI50 up to about 1.1 µM and inactive = higher.
How the values were obtained:
Assay in all cases: NCI-60 cell line screen, 48 h
A549 = system: A549
CCRF-CEM = system: CCRF-CEM
EKVX = system: EKVX
HCC 2998 = system: HCC 2998
HL-60 = system: HL-60
LOX IMVI = system: LOX IMVI
M14 = system: M14
MCF7 = system: MCF7
MDA-MB-435 = system: MDA-MB-435
MDA-N = system: MDA-N
MOLT-4 = system: MOLT-4
NCI/ADR-RES = system: NCI/ADR-RES
OVCAR-4 = system: OVCAR-4
SK-MEL-28 = system: SK-MEL-28
SNB-19 = system: SNB-19
TK-10 = system: TK-10
U-251 = system: U-251
IGROV-1 = system: IGROV-1
NCI-H522 = system: NCI-H522
SNB-75 = system: SNB-75

Measured: GI50

Oc1ccc(O)c(Cc2ccccc2)c1
inactive: A549 37.2 µM | CCRF-CEM 7.41 µM | EKVX 38.5 µM | HCC 2998 93.1 µM | HL-60 1.52 µM | LOX IMVI 18.6 µM | M14 23.5 µM | MCF7 15 µM | MDA-MB-435 19.5 µM | MDA-N 18 µM | MOLT-4 6.7 µM | NCI/ADR-RES 16.4 µM | OVCAR-4 14.2 µM | SK-MEL-28 33.7 µM | SNB-19 53.1 µM | TK-10 21.7 µM | U-251 20.1 µM

COc1ccc(NC=O)c(C(O)CCNC(C)=O)c1 (stereo not given)
inactive: A549 > 100 µM | CCRF-CEM > 100 µM | EKVX > 100 µM | HL-60 > 100 µM | IGROV-1 > 100 µM | LOX IMVI > 100 µM | M14 > 100 µM | MCF7 > 100 µM | MDA-MB-435 > 100 µM | MDA-N > 100 µM | MOLT-4 > 100 µM | NCI-H522 > 100 µM | NCI/ADR-RES > 100 µM | OVCAR-4 > 100 µM | SNB-19 > 100 µM | SNB-75 > 100 µM | TK-10 > 100 µM | U-251 > 100 µM

CC(C)Oc1c(C2(c3ccccc3)SCCCS2)c(=O)c1=O
inactive: A549 > 100 µM | CCRF-CEM 45.6 µM | EKVX > 100 µM | HL-60 > 100 µM | IGROV-1 > 100 µM | LOX IMVI > 100 µM | M14 > 100 µM | MCF7 > 100 µM | MDA-MB-435 > 100 µM | MDA-N > 100 µM | MOLT-4 > 100 µM | NCI-H522 24.7 µM | NCI/ADR-RES > 100 µM | OVCAR-4 > 100 µM | SK-MEL-28 > 100 µM | SNB-19 > 100 µM | SNB-75 > 100 µM | TK-10 > 100 µM | U-251 > 100 µM

COc1cc2c(cc1Cc1c(F)cccc1Cl)nc(-c1c(F)cccc1Cl)n2Cc1c(F)cccc1Cl
inactive: A549 20.7 µM | CCRF-CEM 2.1 µM | EKVX 12.6 µM | HCC 2998 17.5 µM | HL-60 78.5 µM | IGROV-1 32.4 µM | M14 > 100 µM | MCF7 35.2 µM | MDA-MB-435 33.1 µM | MDA-N 20.6 µM | MOLT-4 36 µM | NCI-H522 16.1 µM | NCI/ADR-RES 38.7 µM | OVCAR-4 18.6 µM | SK-MEL-28 65.6 µM | SNB-19 33.2 µM | SNB-75 24.7 µM | TK-10 > 100 µM | U-251 35.2 µM

O=C(/C=C1/Nc2ccc([N+](=O)[O-])cc2N/C1=C/C(=O)c1ccc(Cl)cc1)c1ccccc1
inactive: A549 > 100 µM | CCRF-CEM 64.7 µM | EKVX > 100 µM | HCC 2998 > 100 µM | IGROV-1 > 100 µM | M14 > 100 µM | MCF7 > 100 µM | MDA-MB-435 > 100 µM | MDA-N > 100 µM | MOLT-4 > 100 µM | NCI-H522 12.6 µM | NCI/ADR-RES 60.3 µM | OVCAR-4 > 100 µM | SNB-19 37 µM | SNB-75 19.9 µM | TK-10 59 µM | U-251 30.8 µM

[O-][N+]1=[N+]([O-])[C@@H](c2ccccc2)[C@H]1c1ccccc1
inactive: A549 19.5 µM | CCRF-CEM 3.3 µM | EKVX 18.3 µM | HL-60 2.05 µM | IGROV-1 12.6 µM | LOX IMVI 15.3 µM | M14 15.8 µM | MCF7 15.7 µM | MDA-MB-435 18.7 µM | MDA-N 16.6 µM | MOLT-4 21.3 µM | NCI-H522 11.5 µM | NCI/ADR-RES 17.5 µM | OVCAR-4 25 µM | SK-MEL-28 16.6 µM | SNB-19 18.4 µM | SNB-75 21.3 µM | TK-10 17 µM | U-251 18.6 µM

O=C(CCc1ccc(O)cc1)NCCCNC(=O)CCc1ccc(O)cc1
inactive: A549 > 100 µM | CCRF-CEM > 100 µM | HCC 2998 > 100 µM | IGROV-1 > 100 µM | LOX IMVI > 100 µM | M14 > 100 µM | MCF7 > 100 µM | MDA-MB-435 > 100 µM | MDA-N > 100 µM | MOLT-4 > 100 µM | NCI-H522 > 100 µM | NCI/ADR-RES > 100 µM | OVCAR-4 > 100 µM | SK-MEL-28 > 100 µM | SNB-19 > 100 µM | SNB-75 24.7 µM | U-251 > 100 µM

CN(CC(=O)O)c1ncc2c(n1)-c1ccccc1OC2
inactive: A549 > 100 µM | CCRF-CEM > 100 µM | EKVX > 100 µM | HL-60 > 100 µM | IGROV-1 > 100 µM | LOX IMVI > 100 µM | M14 > 100 µM | MCF7 > 100 µM | MDA-MB-435 > 100 µM | MDA-N > 100 µM | MOLT-4 > 100 µM | NCI-H522 > 100 µM | NCI/ADR-RES > 100 µM | OVCAR-4 > 100 µM | SK-MEL-28 > 100 µM | SNB-19 > 100 µM | SNB-75 > 100 µM | TK-10 > 100 µM | U-251 > 100 µM

COc1cccc(NC(=O)C(C#N)=C(SC)SC)c1
inactive: A549 > 100 µM | CCRF-CEM 34 µM | EKVX > 100 µM | HCC 2998 > 100 µM | IGROV-1 > 100 µM | LOX IMVI > 100 µM | M14 > 100 µM | MCF7 72.9 µM | MDA-MB-435 > 100 µM | MDA-N > 100 µM | MOLT-4 62.2 µM | NCI-H522 30.4 µM | NCI/ADR-RES > 100 µM | OVCAR-4 > 100 µM | SK-MEL-28 > 100 µM | SNB-19 57 µM | SNB-75 > 100 µM | TK-10 > 100 µM | U-251 > 100 µM

Cc1cc2[nH]c3c(C#N)c(-c4ccccc4)c(/C=N/c4ccc(Cl)cc4)c(=O)n3c2cc1C
inactive: A549 > 100 µM | CCRF-CEM > 100 µM | EKVX > 100 µM | HCC 2998 > 100 µM | LOX IMVI > 100 µM | M14 > 100 µM | MCF7 > 100 µM | MDA-MB-435 > 100 µM | MDA-N > 100 µM | NCI-H522 > 100 µM | NCI/ADR-RES > 100 µM | OVCAR-4 > 100 µM | SK-MEL-28 > 100 µM | SNB-19 > 100 µM | SNB-75 > 100 µM | TK-10 > 100 µM | U-251 > 100 µM

Cc1ccc(C(=O)CCC2C(=O)CC(C)(C)CC2=O)cc1
inactive: A549 > 100 µM | CCRF-CEM 24.5 µM | EKVX > 100 µM | HCC 2998 > 100 µM | IGROV-1 > 100 µM | LOX IMVI > 100 µM | M14 > 100 µM | MCF7 53 µM | MDA-MB-435 > 100 µM | MDA-N > 100 µM | MOLT-4 > 100 µM | NCI-H522 16.6 µM | NCI/ADR-RES > 100 µM | OVCAR-4 > 100 µM | SK-MEL-28 > 100 µM | SNB-19 > 100 µM | SNB-75 > 100 µM | TK-10 > 100 µM | U-251 > 100 µM

From ChEMBL document CHEMBL1201862, “PubChem BioAssay data set” (2004)
